US9783785B2, “Screening methods for detection of susceptibility to leukemia and lymphomas” (priority 2010, dated 2017)

How the values were obtained:
[1] = test system: mononuclear leukocytes of long-term survivors of acute lymphoblastic leukemia (ALL); assay: cell surface phenotyping by flow cytometry, cells of ALL patients; type: cell-based, human; details: cells of leukemic patients in remission/long-term ALL survivors; compared to media only; days 1-4
Protocol: (§1) Subject to parental/patient consent, approximately 15 ml of blood was obtained from leukemic patients in remission, long-term survivors of acute lymphoblastic leukemia and normal volunteers. Additional “normal” control samples were collected from the first drawing of blood in sickle cell patients undergoing manual partial exchange transfusion, or samples of blood discarded by the blood bank from normal donors. Patient blood was placed into heparin (1000 USP u/ml). Peripheral blood mononuclear cells (PBMC) were isolated by density gradient centrifugation (400×g, 40 minutes, and 18° C.) with Ficoll Paque Plus (GE Healthcare, Amersham Biosciences; Uppsala, Sweden), followed by washing with phosphate-buffered saline. Plasma was also collected simultaneously and stored at −80° C. until use. […]
(§2) Frozen specimens were thawed in a 37° C. water bath with continuous agitation. […] These cells (frozen/thawed PBMC) were then assessed for viability by trypan blue dye exclusion, counted, and re-suspended in the medium for assay. […]
(§3) At time intervals of 24, 48, 72 and 96 hrs, cell surface phenotyping was performed by flow cytometry. […] Acquisition and Analysis was carried out on fluorescence activated cell sorting (FACS) BD FACS Canto II using FACSDiva v 6.1.2. […] Percentage of cells positive for CD10CD19, CD34CD19 and CD34CD117 were recorded.

[2] = test system: mononuclear cells from "normal"/sickle cell patients (controls); assay: cell surface phenotyping by flow cytometry, control cells; type: cell-based, human; details: compared to media only, days 1-4
Protocol: as §1, §2, §3

Substance: Aflotoxin B1 [aflotoxin (AT)]
- development of cell surface phenotypes characteristic of ALL (CD10/CD19, CD34/CD19, CD34/CD117) [1]: indiscriminately induced increased development
- development of cell surface phenotypes characteristic of ALL (CD10/CD19, CD34/CD19, CD34/CD117) [2]: indiscriminately induced increased development
